In PMC7066280 (Investigational New Drugs, 2019):
Read-outs that look alike come from different tables or passages of the source.

Tests used:
Assay type in all cases: in vivo, human
[1] = Ivosidenib plasma PK after multiple oral doses (dose escalation); conditions: for Cmax / AUC(0-t) / AUC / Tmax: human, plasma, oral; for Cmax / AUC(0-t) / AUC: geometric mean; for AUC(0-t): read-out: AUC0-10hr; for AUC: read-out: AUC0-tau
Description: In the dose escalation portion, patients with 1) glioma and 2) non-glioma solid tumors were enrolled into sequential cohorts using a standard 3 + 3 design. […] At least 3 patients in each cohort also received a single dose 3 days prior to the start of multiple dosing (i.e., day −3).
(§1) These samples were optional for any further patients enrolled in these cohorts. Further blood samples were collected from all patients up to 10 h postdose on cycle 1, day 15 and cycle 2, day 1. A subset of samples was also used for evaluation of plasma 4β-hydroxycholesterol (4β-OHC) and 4β-OHC:cholesterol ratios. Blood samples for assessment of 2-HG only were also collected at screening.
(§2) Plasma ivosidenib was measured using two validated liquid chromatography-tandem mass spectrometry (LC-MS/MS) methods. The lower limit of quantification (LLOQ) was 1.00 ng/mL (low-range assay) or 50.0 ng/mL (high-range assay). […] Plasma 2-HG concentrations were measured using a qualified LC-MS/MS method with an LLOQ of 30.0 ng/mL. Concentrations of 2-HG in tumor biopsy samples were quantified using qualified LC-MS/MS methods with an LLOQ of 7.5 μg/g for brain tumor homogenate, 100 ng/g for liver tumor homogenate (low-range assay), and 30 μg/g for liver tumor homogenate (high-range assay). Plasma 4β-OHC and cholesterol were measured using a validated LC-MS/MS method. The LLOQ was 5 ng/mL for 4β-OHC and 25 μg/mL for cholesterol in human plasma.
(§3) PK parameters included area under the plasma concentration-time curve (AUC), maximum plasma concentration (Cmax), time to maximum plasma concentration (Tmax), terminal elimination half-life (t1/2), and apparent oral clearance at steady state (CLss/F). Accumulation ratio (Racc), based on Cmax and AUC, was also assessed during the dose escalation portion. PD (2-HG) parameters included baseline-effect value, area under the effect concentration-time curve (AUEC0-10h for the dose escalation portion, or AUEC0-8h for the dose escalation and expansion portions), percent change from baseline in AUEC (%BAUEC0-10h for the escalation portion, or %BAUEC0-8h for the dose escalation and expansion portions), average plasma concentration (Cavg), and percent inhibition for Cavg (%BCavg). For the dose escalation portion, the time-matched ratios of 4β-OHC to cholesterol were calculated.

plasma 2-HG = assay: Plasma 2-HG pharmacodynamics in patients with IDH1-mutant tumors
Description: as §1
Additional predose samples were taken on cycle 1, day 8; cycle 1, day 15; cycle 3, day 1; and end of treatment.
as §2, §3

[2] = Dose proportionality assessment of AUC and Cmax (power model)
Description: Dose proportionality after multiple dosing was tested using data from the QD dose regimens without the 100 mg BID dose group. To assess dose proportionality, the confidence interval (CI) for the slope was estimated, with each natural logarithm (ln)-transformed PK parameter as the dependent variable and the ln-transformed dose as the fixed effect. Analysis was performed using PK parameter estimates at day −3, cycle 1, day 15, and cycle 2, day 1. Dose proportionality was concluded if the 95% CI around the slope included 1 and if the slope was between 0.8 and 1.2 (inclusive).

[3] = 100 mg, non-glioma solid tumors, 100 mg BID, cycle 2 day 1
[4] = 300 mg, glioma, 300 mg QD, cycle 2 day 1
[5] = 300 mg, non-glioma solid tumors, 300 mg QD, cycle 2 day 1
[6] = 400 mg, non-glioma solid tumors, 400 mg QD, cycle 2 day 1
[7] = 500 mg, glioma, 500 mg QD, cycle 2 day 1
[8] = 500 mg, non-glioma solid tumors, 500 mg QD, cycle 2 day 1
[9] = 600 mg, glioma, 600 mg QD, cycle 2 day 1
[10] = 800 mg, non-glioma solid tumors, 800 mg QD, cycle 2 day 1
[11] = 900 mg, glioma, 900 mg QD, cycle 2 day 1
[12] = 1200 mg, non-glioma solid tumors, 1,200 mg QD, cycle 2 day 1

Compound `N#Cc1ccnc(N2C(=O)CC[C@H]2C(=O)N(c2cncc(F)c2)[C@H](C(=O)NC2CC(F)(F)C2)c2ccccc2Cl)c1` [ivosidenib] has a Cmax [1, 3] of 3560 ng/mL, an AUC(0-t) [1, 3] of 28600 ng·h/mL and an AUC [1, 3] of 33600 ng·h/mL. For the same compound, the Tmax ([1]; 100 mg, non-glioma solid tumors, 100 mg BID, cycle 2 day 1, median, read-out: Tmax) was 2.5 h, the Cmax [1, 4] was 3290 ng/mL and the AUC(0-t) [1, 4] was 23700 ng·h/mL. For the same compound, the AUC [1, 4] was 50800 ng·h/mL, the Tmax ([1]; 300 mg, glioma, 300 mg QD, cycle 2 day 1, median, read-out: Tmax) was 2.54 h and the Cmax [1, 5] was 3160 ng/mL. The AUC(0-t) [1, 5] was 23400 ng·h/mL, the AUC [1, 5] was 53200 ng·h/mL and the Tmax ([1]; 300 mg, non-glioma solid tumors, 300 mg QD, cycle 2 day 1, median, read-out: Tmax) was 2.05 h. For the same compound, the Cmax [1, 6] was 6800 ng/mL, the AUC(0-t) [1, 6] was 51600 ng·h/mL and the Tmax ([1]; 400 mg, non-glioma solid tumors, 400 mg QD, cycle 2 day 1, median, read-out: Tmax) was 3.03 h. It also gave a Cmax [1, 7] of 2900 ng/mL, an AUC(0-t) [1, 7] of 20500 ng·h/mL and an AUC [1, 7] of 44400 ng·h/mL. The Tmax ([1]; 500 mg, glioma, 500 mg QD, cycle 2 day 1, median, read-out: Tmax) was 2 h, the Cmax [1, 8] was 4420 ng/mL and the AUC(0-t) [1, 8] was 33900 ng·h/mL. It also gave an AUC [1, 8] of 72800 ng·h/mL, a Tmax ([1]; 500 mg, non-glioma solid tumors, 500 mg QD, cycle 2 day 1, median, read-out: Tmax) of 2.96 h and a Cmax [1, 9] of 3800 ng/mL. For the same compound, the AUC(0-t) [1, 9] was 29100 ng·h/mL, the AUC [1, 9] was 59800 ng·h/mL and the Tmax ([1]; 600 mg, glioma, 600 mg QD, cycle 2 day 1, median, read-out: Tmax) was 2 h. For the same compound, the Cmax [1, 10] was 6050 ng/mL, the AUC(0-t) [1, 10] was 44500 ng·h/mL and the Tmax ([1]; 800 mg, non-glioma solid tumors, 800 mg QD, cycle 2 day 1, median, read-out: Tmax) was 2 h. It also gave a Cmax [1, 11] of 4100 ng/mL, an AUC(0-t) [1, 11] of 31100 ng·h/mL and an AUC [1, 11] of 64500 ng·h/mL. It also gave a Tmax ([1]; 900 mg, glioma, 900 mg QD, cycle 2 day 1, median, read-out: Tmax) of 2.52 h, a Cmax [1, 12] of 7580 ng/mL and an AUC(0-t) [1, 12] of 57700 ng·h/mL. It also gave an AUC [1, 12] of 120000 ng·h/mL, a Tmax ([1]; 1200 mg, non-glioma solid tumors, 1,200 mg QD, cycle 2 day 1, median, read-out: Tmax) of 2.92 h and a Tmax ([1]; after multiple doses, glioma and non-glioma solid tumors, read-out: median Tmax) of 2 to 3 h. The “steady state reached by” value ([1]; multiple dosing, cycle 1) was ≤ 15 days, the “steady state for ivosidenib plasma exposure and plasma 2-HG inhibition reached within” value ([1]; of cycle 1) was ≤ 14 days and the “plasma 2-HG reduction” value (plasma 2-HG; after multiple doses, patients with cholangiocarcinoma or chondrosarcoma) was “up to 98%”. For the same compound, the “plasma 2-HG inhibition compared with baseline” value (plasma 2-HG; after one week of continuous dosing, cholangiocarcinoma and chondrosarcoma) was “up to 98%”, the “plasma 2-HG mean Cavg percent inhibition (BCavg%)” value (plasma 2-HG; cholangiocarcinoma, 500 mg multiple dose, cycle 1 day 15) was 79% and the “plasma 2-HG mean Cavg percent inhibition (BCavg%)” value (plasma 2-HG; cholangiocarcinoma, 500 mg multiple dose, cycle 2 day 1) was 80%. For the same compound, the “plasma 2-HG mean Cavg percent inhibition (BCavg%)” value (plasma 2-HG; cholangiocarcinoma, single dose, 500 mg) was 46%, the “plasma 2-HG mean Cavg percent inhibition (BCavg%)” value (plasma 2-HG; chondrosarcoma, 500 mg multiple dose, cycle 1 day 15) was 54% and the “plasma 2-HG mean Cavg percent inhibition (BCavg%)” value (plasma 2-HG; chondrosarcoma, 500 mg multiple dose, cycle 2 day 1) was 59%. The “plasma 2-HG mean Cavg percent inhibition (BCavg%)” value (plasma 2-HG; chondrosarcoma, single dose, 500 mg) was 30%, the “increase in ivosidenib exposure for a doubling of dose” value ([2]; patients with glioma) was ~40% and the “increase in ivosidenib exposure for a doubling of dose” value ([2]; patients with non-glioma solid tumors) was ~70%.
